Measurements reported in patent US20240247236A1, “METHOD FOR PRODUCING PLURIPOTENT STEM CELLS” (KANEKA CORPORATION, priority 2021, published 2024).

Tested on: human iPS cell line 201B7
Assay: Quantitative real-time PCR analysis of germ layer marker genes in suspension culture of human iPS cell line 201B7
Format: cell-based
Settings: WNT inhibitor = IWR-1-endo 20 μM, PKCβ inhibitor = GF109203X 3 μM
[1] = day 10 of suspension culture, compared with adherent culture (Reference Example 1)

Method: Human iPS cell line 201B7 after adherent culture in the same manner as in Reference Example 1 was treated with Accutase for 5 minutes to be detached from the culture surface, and the cells were dispersed into a single state by pipetting. The cells were suspended in StemFit (registered trademark) AK02N medium containing Y-27632 at a final concentration of 10 μM, and some of the cells were stained with trypan blue, followed by measurement of the viable cell count. A cell suspension was prepared using StemFit (registered trademark) AK02N medium containing Y-27632 at a final concentration of 10 μM such that the cell suspension included 2×10^5 cells per 1 mL. The cell suspension in an amount of 1 mL was seeded per well in a 12-well plate for suspension culture (Sumitomo Bakelite Co., Ltd.). The plate seeded with cells was rotated on a rotary shaker at a speed of 98 rpm along a horizontal plane in a circle with a rotation width (diameter) of 25 mm, during which the suspension culture was performed at 37° C. in a 5% CO2 environment.
The day when the cells were seeded was defined as day 0 of culture, passage was performed on day 5 of culture, and suspension culture was performed until day 10 of culture. Medium exchange was carried out every day. As for the method of medium exchange, the entire amount of the medium containing cell masses was collected into a centrifuge tube, and the tube was allowed to stand for about 5 minutes, thereby settling the cell masses. Then, the culture supernatant was removed, and the residue was gently resuspended in StemFit (registered trademark) AK02N medium, and returned to the original well.
Upon medium exchange, Y-27632 was added to the medium at a final concentration of 5 μM on days 1 and 6 of culture, and Y-27632 was added to the medium at a final concentration of 2 μM on days 2 and 7 of culture. On day 5 of culture, the cell masses and culture supernatant were collected from the wells into a centrifuge tube and allowed to stand for about 5 minutes, thereby settling the cell masses. Then, the culture supernatant was removed.
After adding 1 mL of Accutase to the cell masses, the cell masses were treated at 37° C. for 10 minutes and then dispersed into a single-cell state by pipetting. The cells were suspended in StemFit (registered trademark) AK02N medium containing Y-27632 at a final concentration of 10 μM, and some of the cells were stained with trypan blue, followed by measurement of the viable cell count. A cell suspension was prepared using StemFit (registered trademark) AK02N medium containing Y-27632 at a final concentration of 10 μM such that the cell suspension included 2×10^5 cells per 1 mL. Then, cell seeding was performed in the same manner as in the case of day 0 to continue the suspension culture.
Suspension culture was performed in the same manner as in Reference Example 2, except that IWR-1-endo was added as a WNT inhibitor at a final concentration of 20 μM to the seeding medium and the medium exchanged for new medium for suspension culture.

`O=C(Nc1cccc2cccnc12)c1ccc(N2C(=O)[C@@H]3[C@H](C2=O)[C@@H]2C=C[C@H]3C2)cc1` [IWR-1-endo, 4-(1,3,3a,4,7,7a-hexahydro-1,3-dioxo-4,7-methano-2H-isoindole-2-yl)-N-8-quinolinyl-benzamide] was tested, and the “expression level of PAX6 (ectodermal marker gene)” value [1] was “greater than that in Reference Example 1”, the “expression level of SOX17 (endodermal marker gene)” value [1] was “suppressed to the expression levels acceptable for the pluripotent stem cells as with Reference Example 1” and the “expression level of TBXT (mesodermal marker gene)” value [1] was “suppressed to the expression levels acceptable for the pluripotent stem cells as with Reference Example 1”. The “spontaneous differentiation into ectoderm” value (suspension culture) was “weak suppressive effect” and the “spontaneous differentiation into mesoderm and endoderm” value (suspension culture) was “can effectively suppress”.
